Results on one compound are retold here after patent US20130252983A1, “ACTIVATING PHOSPHORYLATION SITE ON GLUTAMINASE C” (CORNELL UNIVERSITY, priority 2010, published 2013).

Experiment [1] concerns NIH 3T3 cells expressing oncogenic Dbl. Description: Dbl-induced cellular transformation (focus formation, growth in low serum, soft agar). It counts as cell-based, mouse. The method, then:
FIGS. 1A-E illustrate that the small molecule 968 inhibits cellular transformation. […] Cells were fixed and stained with crystal violet for counting of foci. Right: 968 was serially diluted (10, 5, 2.5, and 1.25 μM) and evaluated for its ability to inhibit focus formation. […] After 6 days, the cells were counted. 100% represents the number of Dbl-transformed cells counted in the absence of 968 (27.5×10^4 cells). Data represent the average of 3 experiments (±s.d.). […] At the indicated times, the cells were counted. Data represent the average of 3 experiments (±s.d.).
(§1) FIGS. 2A-G illustrate effects of 968 on the transforming activity of constitutively active Rho GTPases and human breast cancer cells. […] Cells were scored after 14 days and plotted as the percentage of the total number of colonies greater than 50 μm in diameter. Data represent the average of 3 experiments (±s.d.). […] Data represent the average of 3 experiments (±s.d.). […] Data represent the average of 3 experiments (±s.d.). […] After 24 hours at 37° C., the migratory cells were fixed, stained with GIEMSA, and counted. Data represent the average of 3 experiments (±s.d.). […] Data represent the average of 3 experiments (±s.d.). […] Data represent the average of 3 experiments (±s.d.). […] Data represent the average of 3 experiments (±s.d.).
FIGS. 5A-C illustrate comparative abilities of 968 and other benzo[a]phenanthridinones to inhibit the transforming activity of oncogenic Dbl and H-Ras. […] Histograms show the relative levels of Dbl-induced focus formation for the different treatments, compared to Dbl-induced focus formation measured in the presence of DMSO (i.e. solvent control). Data represent the average of 3 experiments (mean±s.d.). […] Histograms show the relative levels of Ras(G12V)-induced focus formation measured for the different treatments, compared to Ras(G12V)-induced focus formation measured in the presence of DMSO (solvent control). Data represent the average of 3 experiments (mean±s.d.). FIG. 5C NIH 3T3 cells stably expressing H-Ras(G12V) that were cultured in DMEM supplemented with 1% calf serum, with the indicated amounts of 968. After 6 days, cells are trypsinized and counted. 100% represents the number of cells counted in the absence of 968, i.e. 26×10^4 cells. Data represent the average of 3 experiments (mean±s.d.).

In a further experiment the test system is HMECs. In words: Growth of normal human mammary epithelial cells. The settings on record: 10 μM, MEGM complete medium, 6 days. It counts as cell-based.
The test system of experiment [2] is GA activity of MDA-MB231 cells. Description: GA activity in mitochondrial fractions of treated MDA-MB231 cells. It is filed as cell-based, human. The settings on record: 10 μM, 48 hours. The method, then:
100%=620 moles of glutamine hydrolyzed per minute per mole of enzyme. Data represent the average of 3 experiments (±s.d.). […] Following precipitation of the beads and re-suspension, the samples were analyzed by Western blotting with anti-V5 antibody. […] Data represent the average of 3 experiments (±s.d.). […] Data represent the average of 3 experiments (±s.d.). […] Data represent the average of 3 experiments (±s.d.). FIG. 3E NIH 3T3 cells transiently expressing Dbl were assayed for focus formation in the presence of 10 μM 968 alone or together with 7 mM dimethyl α-ketoglutarate. […] 100%=680 nM glutamine hydrolyzed per minute per 10^5 cells. Data are the average of 3 experiments (±s.d.). […] 100%=750 nM glutamine hydrolyzed per minute per 10^5 cells. Data represent the average of 3 experiments (±s.d.).
Mitochondrial preparations were obtained using the mitochondria isolation kit from QIAGEN (Cat #37612). A suspension containing 2×10^7 cells was transferred into a 50 ml conical tube and centrifuged at 500×g for 10 minutes at 4° C. The pellets were resuspended in 2 ml of ice-cold lysis buffer (supplied by QIAGEN) and incubated for 10 minutes at 4° C. using an end-over-end shaker. […]

The test system of experiment [3] is GACΔC (C-terminal truncation mutant of GAC). In words: Glutaminase activity of immunoprecipitated GACΔC from treated Dbl-transformed cells. It is filed as cell-based, mouse. The settings on record: 10 μM, 48 hours.
Experiment [4] has as its system NIH 3T3 cells stably expressing Cdc42(F28L), Rac(F28L), RhoC(F30L). Description: Invasion through growth factor-reduced Matri-gel. It counts as cell-based, mouse. The settings on record: 10 μM, 24 hours. As for the experimental part:
as §1

For `CN(C)c1ccc(C2Nc3ccc4ccccc4c3C3=C2C(=O)CC(C)(C)C3)cc1Br` (stereo not shown) [Compound 968, 5-[3-bromo-4-(dimethylamino)phenyl]-2,2-dimethyl-2,3,5,6-tetrahydrobenzo[a]], the “Dbl-induced colony formation in soft agar” value in experiment [1] (10 μM) is reported as “blocked”. The “potency against Dbl-induced transformation compared to oncogenic H-Ras” value in experiment [1] (focus formation in NIH 3T3 cells or growth in low serum) is on record as “more potent inhibitor of Dbl-induced transformation”. Further, the “concentration at which active in blocking Dbl-induced transformation” value in experiment [1] (focus-forming assays or growth in low serum) was 1 to 10 µM. The “effect on growth of HMECs” value in the experiment on HMECs is “little effect”. For the same compound, in experiment [2], the “basal GA activity” value is listed as “sensitive to 968”. Also, the “basal activity of GACΔC” value in experiment [3] is “not further reduced”. Further, the invasive activity entry in experiment [4] is recorded as “inhibiting their invasive activity”.
